Results reported in ChEMBL document CHEMBL1201862, “PubChem BioAssay data set” (2004).
Activity calls are given as the source filed them.

Assays:
[1] = target: T1, Ubiquitin-conjugating enzyme E2 N (Homo sapiens, UniProt P61088); assay type: functional;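 also: Dose-response confirmation in a TR-FRET assay detecting UBC13-driven polyubiquitin chain formation, inhibition measured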
T1 sequence (P61088 whole entry): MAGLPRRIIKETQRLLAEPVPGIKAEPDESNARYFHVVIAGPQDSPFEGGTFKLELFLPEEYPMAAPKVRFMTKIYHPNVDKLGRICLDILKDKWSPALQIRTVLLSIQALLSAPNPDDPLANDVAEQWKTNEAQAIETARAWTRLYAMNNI

[2] = Luminescence Cell-Based Dose Retest to Confirm Inhibitors of Cancer Stem Cells. [Related pubchem assays (depositor defined):AID2717, AID2721]; assay type: functional; conditions: Homo sapiens
[3] = cells; assay type: functional
[4] = tested on: Vero; assay: cells; assay type: functional; conditions: Chlorocebus sabaeus
[5] = tested on: H9c2; assay: cells; assay type: functional, cell-based; conditions: Rattus norvegicus, H9c2, Myocardium;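 also: confirmatory concentration-response retest of ultra-high-throughput screening hits for modulation of myocardial damage; cell death induced by hydrogen peroxide oxidative stress; compound pretreatment for 60 min then peroxide exposure for 2 h; potency is for protecting the cells against peroxide damage rather than for killing them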
[6] = NIH-3T3 fibroblast cytotoxicity, dose response, cytotoxicity control, cell-based, fluorescence, Alamar Blue, secondary assay (AID 2327); assay type: functional;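 also: NIH-3T3 mouse fibroblasts cultured with fluconazole at 8 µg/mL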
[7] = C. albicans growth with fluconazole, confirmation, fluorescence, retest (AID 2467); assay type: functional, cell-based
[8] = target: T2, Calpain-2 catalytic subunit (Sus scrofa, UniProt P43367); assay: pig calpain II inhibitor potency, dose response, biochemical, fluorogenic peptide substrate (AID 1420); assay type: functional
T2 sequence (P43367 whole entry): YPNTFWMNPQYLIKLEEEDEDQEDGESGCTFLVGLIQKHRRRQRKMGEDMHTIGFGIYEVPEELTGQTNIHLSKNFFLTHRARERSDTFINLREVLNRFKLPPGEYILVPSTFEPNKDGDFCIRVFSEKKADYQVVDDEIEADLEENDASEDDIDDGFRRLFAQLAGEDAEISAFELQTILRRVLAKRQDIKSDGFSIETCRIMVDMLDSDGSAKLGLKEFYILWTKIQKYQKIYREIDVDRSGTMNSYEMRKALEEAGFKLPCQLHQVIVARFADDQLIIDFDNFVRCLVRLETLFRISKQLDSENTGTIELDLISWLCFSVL

[9] = target: T3, Heat shock factor protein 1 (Mus musculus, UniProt P38532); assay: inhibition of MG132-induced HSE-luciferase signal, confirmation, cell-based, NIH3T3, luminescence, dose retest (AID 2382); assay type: functional;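 also: NIH3T3 fibroblasts with HSF1-driven luciferase reporter stressed by proteasome inhibitor MG132; luminescence from HSF1-driven luciferase expression after 8 hours of MG132 stress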
T3 sequence (P38532 whole entry): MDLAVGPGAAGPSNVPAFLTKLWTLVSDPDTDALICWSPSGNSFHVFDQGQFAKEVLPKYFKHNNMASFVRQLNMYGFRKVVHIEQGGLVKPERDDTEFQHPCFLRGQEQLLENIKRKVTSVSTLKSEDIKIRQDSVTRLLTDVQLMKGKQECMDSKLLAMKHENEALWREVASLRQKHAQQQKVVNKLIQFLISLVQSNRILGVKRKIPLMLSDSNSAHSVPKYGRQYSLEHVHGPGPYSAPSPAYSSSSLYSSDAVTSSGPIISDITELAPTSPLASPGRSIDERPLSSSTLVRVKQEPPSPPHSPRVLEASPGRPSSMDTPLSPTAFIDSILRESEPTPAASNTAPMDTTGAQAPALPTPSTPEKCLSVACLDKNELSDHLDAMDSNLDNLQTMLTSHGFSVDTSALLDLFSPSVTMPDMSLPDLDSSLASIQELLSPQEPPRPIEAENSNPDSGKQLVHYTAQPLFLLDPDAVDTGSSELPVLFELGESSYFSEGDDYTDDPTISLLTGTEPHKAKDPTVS

[10] = tested on: SN12K1; assay: cells; assay type: functional
[11] = tested on: P388; assay: cells; assay type: functional;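 also: compound exposure lasted 48 hours before growth was measured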
[12] = target: T4, Polyadenylate-binding protein 1 (Homo sapiens, UniProt P11940); assay: PABP1 MLLE–PAM2 interaction inhibitors, dose response, miRNA deadenylation inhibitor project, biochemical, fluorescence polarization, Cy5-PAM2 peptide, secondary (AID 602260); assay type: functional; conditions: read-out: IC50_Mean
[13] = target: T4, Polyadenylate-binding protein 1; assay: PABP1 MLLE–PAM2 binding inhibitor potency, dose response, biochemical, fluorescence polarization, FITC-PAM2 peptide (AID 602259); assay type: functional; conditions: read-out: IC50_Mean
[14] = tested on: HEK293; assay: inhibitors of LMP1-driven NF-kB reporter, dose response, cell-based, HEK293, luciferase, cherry-pick (AID 588343); assay type: functional; conditions: Homo sapiens
[15] = target: Large T antigen (Simian virus 40, UniProt P03070); assay type: functional, Betapolyomavirus macacae;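 also: Confirmatory-stage PubChem screen for compounds that inhibit SV40 T antigen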
[16] = target: FAD-linked sulfhydryl oxidase ALR (Homo sapiens, UniProt P55789); assay: inhibitors of human ALR sulfhydryl oxidase, dose response, biochemical, H2O2 detection, luminescence, cherry-pick (AID 493248)
FAD-linked sulfhydryl oxidase ALR, sequence (P55789 whole entry): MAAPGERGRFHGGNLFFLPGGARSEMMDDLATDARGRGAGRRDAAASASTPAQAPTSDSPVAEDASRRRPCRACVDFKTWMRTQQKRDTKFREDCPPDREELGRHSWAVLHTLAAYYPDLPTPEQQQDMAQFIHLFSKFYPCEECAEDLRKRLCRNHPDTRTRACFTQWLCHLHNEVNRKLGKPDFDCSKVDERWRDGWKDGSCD

T4 sequence (P11940 whole entry): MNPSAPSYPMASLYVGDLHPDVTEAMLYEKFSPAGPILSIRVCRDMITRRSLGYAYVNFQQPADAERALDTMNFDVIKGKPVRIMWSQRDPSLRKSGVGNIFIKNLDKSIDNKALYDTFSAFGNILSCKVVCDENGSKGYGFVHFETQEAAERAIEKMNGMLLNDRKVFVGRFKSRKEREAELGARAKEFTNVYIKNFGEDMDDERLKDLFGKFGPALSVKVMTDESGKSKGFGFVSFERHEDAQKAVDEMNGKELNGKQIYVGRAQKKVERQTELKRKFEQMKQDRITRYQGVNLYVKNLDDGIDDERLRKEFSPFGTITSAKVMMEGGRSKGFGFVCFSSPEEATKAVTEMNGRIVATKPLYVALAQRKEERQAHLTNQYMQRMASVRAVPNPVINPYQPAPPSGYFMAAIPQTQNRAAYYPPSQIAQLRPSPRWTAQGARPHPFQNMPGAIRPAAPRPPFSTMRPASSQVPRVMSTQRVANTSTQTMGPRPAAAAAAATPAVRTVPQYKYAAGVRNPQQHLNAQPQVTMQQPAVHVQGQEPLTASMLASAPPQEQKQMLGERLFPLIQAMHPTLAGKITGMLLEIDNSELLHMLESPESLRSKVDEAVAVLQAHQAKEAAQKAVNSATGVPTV
Large T antigen, sequence (P03070 whole entry): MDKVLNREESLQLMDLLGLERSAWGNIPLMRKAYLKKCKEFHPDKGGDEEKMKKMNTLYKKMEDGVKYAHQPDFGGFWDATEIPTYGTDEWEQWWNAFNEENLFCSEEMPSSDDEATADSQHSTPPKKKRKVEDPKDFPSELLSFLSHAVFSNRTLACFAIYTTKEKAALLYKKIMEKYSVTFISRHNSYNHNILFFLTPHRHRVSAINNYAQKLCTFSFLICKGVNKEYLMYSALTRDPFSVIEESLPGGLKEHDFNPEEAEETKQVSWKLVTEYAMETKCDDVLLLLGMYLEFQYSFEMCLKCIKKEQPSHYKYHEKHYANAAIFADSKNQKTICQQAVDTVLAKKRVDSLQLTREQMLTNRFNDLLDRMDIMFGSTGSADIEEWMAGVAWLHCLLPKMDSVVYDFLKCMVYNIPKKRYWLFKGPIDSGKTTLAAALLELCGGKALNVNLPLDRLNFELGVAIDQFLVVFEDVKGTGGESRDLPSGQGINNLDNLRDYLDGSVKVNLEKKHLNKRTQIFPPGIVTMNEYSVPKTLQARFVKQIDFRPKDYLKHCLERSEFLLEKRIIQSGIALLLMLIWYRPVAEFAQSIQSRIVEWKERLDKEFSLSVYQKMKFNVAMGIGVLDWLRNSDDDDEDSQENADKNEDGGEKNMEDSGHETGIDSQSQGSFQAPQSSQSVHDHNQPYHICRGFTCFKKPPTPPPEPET

With `CCOc1ccc2nc(N(CCCN(C)C)C(=O)c3ccc(C(=O)c4ccccc4)cc3)sc2c1` the IC50 [1] was > 20 µM (inactive).

In the case of `O=C(NCCCN1CCOCC1)c1ccc(CSc2ccc(Cl)cc2)cc1`, the AC50 [2] was 1.25 µM (active), the IC50 [3] was 34.3 µM (active) and the CC50 [4] was > 25 µM (active).

For `CCc1ccc(C(C)NC(=O)c2cc(C)oc2C)cc1` (centres undefined), the IC50 [5] was > 79 µM (inactive).

For `CCOC(=O)C(=NC1CCCCC1)NNc1cccc(C(F)(F)F)c1`, the EC50 [6] was > 150 µM (inconclusive) and the EC50 [7] was > 38 µM (not active).

For `Cc1cccc(NC(=O)CN2C(=O)N/C(=C/c3cc(C)n(-c4cccnc4)c3C)C2=O)c1`, the IC50 [8] was > 50 µM (not active).

For `Cc1ccc(S(=O)(=O)N2CCCCC2)cc1NC(=O)COC(=O)c1ccc2c(c1)OCO2`, the IC50 [8] was 1.74 µM (not active).

With `O=c1c2cc(-c3ccccc3)sc2nc2n1N=C(c1ccccc1)CS2` the CC50 [4] was > 25 µM (active).

With `COc1ccccc1CN(C)C(=O)c1cc(-c2cc(OC)c(OC)c(OC)c2)nc2ccccc12` the IC50 [5] was 29.1 µM (active).

With `CC(NC(=O)Nc1ccccc1F)C(C)(C)C` (centres undefined) the EC50 [6] was > 160 µM (inconclusive).

In the case of `O=C(Nc1nc(-c2cc(F)ccc2F)cs1)C1=NN(c2ccccc2)C(=O)CC1`, the IC50 [5] was > 79 µM (inactive).

For `O=C(NCC1CCN(Cc2ccccc2F)CC1)C1CCCN(c2ncnc3c2nc2n3CCCCC2)C1` (centres undefined), the IC50 [1] was > 20 µM (inactive).

For `Cc1[nH]c2ccccc2c1/C=N\NC(=O)Cn1nnc(-c2ccccc2)n1`, the IC50 [8] was > 50 µM (not active).

With `Cc1ccc(CN(C(=O)CNC(=O)c2cccs2)C(C(=O)NCC2CCCO2)c2ccccc2)cc1` (centres undefined) the IC50 [5] was > 79 µM (inactive).

For `Cc1cc(C)cc(SCc2noc(C(=O)NCc3ccccc3)c2C(=O)NCc2ccccc2)c1`, the EC50 [9] was > 195 µM (not active) and the IC50 [8] was 6.27 µM (not active).

In the case of `Cc1ccc(NCc2nnc(SCC(=O)N(Cc3ccccc3)C(C)(C)C)o2)c(C)c1`, the IC50 [8] was 5.13 µM (not active).

With `CCCCCCCCCCSCC(CO)NC(=O)/C=C/c1c(C)[nH]c(=O)[nH]c1=O` (centres undefined) the GI50 [10] was 1.26 µM (inactive), the GI50 ([10]; Homo sapiens, SN12K1) was 1.05 µM (active) and the GI50 [11] was 479 nM (active). The GI50 ([11]; Mus musculus, P388) was 284 nM (active).

For `c1cc2[nH]c(C3CC3)nc2c2nsnc12`, the IC50 [5] was > 79 µM (inactive).

For `CCc1nnc(NC(=O)CSc2nnc(CNc3ccc(OC)cc3)n2C)s1`, the IC50 [5] was 28.3 µM (active).

In the case of `CCCN1CCN(CCCNC(=O)c2cc3c(O)nc4ccc(C)cc4c3s2)CC1`, the CC50 [4] was > 25 µM (active).

In the case of `CC[C@H](C)[C@@H]1NC(=O)c2cc([N+](=O)[O-])cc(F)c2NCCCC[C@@H](C(N)=O)NC(=O)[C@H](CCCCN)NC1=O`, the IC50 [1] was > 20 µM (inactive).

For `CN(C)/N=C/c1cc([N+](=O)[O-])ccc1O`, the IC50 [8] was 13.8 µM (not active).

With `COc1ccc2[nH]cc(CCNC(=O)Nc3ccccc3)c2c1` the IC50 [1] was > 20 µM (inactive).

For `COc1ccc(CCNC(=O)CCC2COc3ccccc3O2)cc1OC` (centres undefined), the EC50 [6] was > 150 µM (inactive) and the EC50 [7] was 16.9 µM (active).

In the case of `COc1cc(NS(=O)(=O)c2ccc(NC(=S)NC(=O)c3sc4ccccc4c3Cl)cc2)nc(OC)n1`, the IC50 [8] was > 50 µM (not active), the IC50 [12] was > 66 µM (inactive) and the IC50 [13] was > 66 µM (inactive).

For `Cc1c(O)cc2n(c1=O)-c1ccc(Cl)cc1C2(C)C`, the EC50 [6] was > 150 µM (inactive) and the EC50 [7] was 2 µM (active).

For `C(=C\c1ccccc1)/C=N/Nc1nc(N2CCCCC2)nc(N2CCCCC2)n1`, the EC50 [6] was > 150 µM (inactive) and the EC50 [7] was > 38 µM (not active).

In the case of `NC(=S)NN=Cc1nccc2c(C(F)(F)F)cccc12`, the AC50 [14] was 1.77 µM (active) and the CC50 [4] was 2.01 µM (active).

With `C#CCOCCOCCOCCNc1nc(N2CCN(C(=O)[C@H]([C@@H](C)CC)n3cc([C@@H](N)Cc4ccc(O)cc4)nn3)CC2)nc(N2CCN(C(=O)[C@H](CCCCN)n3cc([C@@H](N)CO)nn3)CC2)n1` the IC50 [1] was > 20 µM (inactive).

With `CN1CCN(S(=O)(=O)c2ccc(N3CCN(c4ccc(O)cc4)CC3)c([N+](=O)[O-])c2)CC1` the IC50 [15] was 8.6 µM (active) and the AC50 [16] was 2.62 µM (active).

In the case of `CC(C)n1c(O)c(N=NC(=O)CNC(=O)CCc2ccccc2)c2ccccc21`, the IC50 [8] was > 50 µM (not active).
